Here are results for 3 compounds from patent US11746110B2, “Alkynyl (hetero) aromatic ring compounds used for inhibiting protein kinase activity” (Shenzhen TargetRx, Inc., priority 2018, dated 2023).

Each structure is given as a SMILES string.

Experiment [1] has as its target ABL (Homo sapiens (Human), UniProt P00519). Description: Biochemical kinase analysis, ABL. The note with it: kinase inhibition assay. The protocol: (§1) Reagents and materials: ABL (ThermoFisher, Cat. No. PV3585), ABL^T315I(Thermo Fisher, Cat. No. PR7429B), Ret (Carna, Cat. No. 08-159-10 ug), RET^V804M, Active (Signalchem, Cat. No. R02-12GG), ATP (Sigma, Cat. No. A7699-1G), DMSO (Sigma, Cat. No. D2650), 96-well plate (Corning, Cat. No. 3365), 384-well plate (Greiner, Cat. No. 784076), buffer solution (Thermo Fisher, Cat. No. PR4876B).
(§2) Compound formulation: The test compounds were dissolved in DMSO to prepare a 20 mM stock solution. Before use, the compounds were diluted in DMSO to 0.1 mM, and diluted into 11 concentrations with a 3-fold gradient. When addition, dilutions of 4-fold final concentration were then made with buffer solution.
(§3) Kinase assay method: After preparing the buffer, the enzyme was mixed with pre-formulated and diluted compounds of different concentrations in duplicate for each concentration, and placed at room temperature for 30 minutes. The corresponding substrate and ATP were added thereto, and reacted at room temperature for 60 minutes (both a negative and a positive control were set). After the reaction, antibody was added for detection, Evnvision detection was carried out after 60 minutes incubation at room temperature, and data was collected. Data analysis and fitting were made according to XLfit5 software.

For experiment [2], the target named is ABL^T315I (Homo sapiens (Human), UniProt P00519, T315I). Description: Biochemical kinase analysis, ABL T315I. The conditions noted are these: kinase inhibition assay. How it is done:
as §1, §2, §3

The target of experiment [3] is Ret (Homo sapiens (Human), UniProt P07949). Nature of the experiment: Biochemical kinase analysis, Ret. The note with it: kinase inhibition assay. How it is done:
as §1, §2, §3

In experiment [4] the target is RET^V804M (Homo sapiens (Human), UniProt P07949, V804M). Nature of the experiment: Biochemical kinase analysis, RET V804M. The note with it: kinase inhibition assay. How it is done: as §1, §2, §3
Chain of RET^V804M (P07949 29-1114 V804M): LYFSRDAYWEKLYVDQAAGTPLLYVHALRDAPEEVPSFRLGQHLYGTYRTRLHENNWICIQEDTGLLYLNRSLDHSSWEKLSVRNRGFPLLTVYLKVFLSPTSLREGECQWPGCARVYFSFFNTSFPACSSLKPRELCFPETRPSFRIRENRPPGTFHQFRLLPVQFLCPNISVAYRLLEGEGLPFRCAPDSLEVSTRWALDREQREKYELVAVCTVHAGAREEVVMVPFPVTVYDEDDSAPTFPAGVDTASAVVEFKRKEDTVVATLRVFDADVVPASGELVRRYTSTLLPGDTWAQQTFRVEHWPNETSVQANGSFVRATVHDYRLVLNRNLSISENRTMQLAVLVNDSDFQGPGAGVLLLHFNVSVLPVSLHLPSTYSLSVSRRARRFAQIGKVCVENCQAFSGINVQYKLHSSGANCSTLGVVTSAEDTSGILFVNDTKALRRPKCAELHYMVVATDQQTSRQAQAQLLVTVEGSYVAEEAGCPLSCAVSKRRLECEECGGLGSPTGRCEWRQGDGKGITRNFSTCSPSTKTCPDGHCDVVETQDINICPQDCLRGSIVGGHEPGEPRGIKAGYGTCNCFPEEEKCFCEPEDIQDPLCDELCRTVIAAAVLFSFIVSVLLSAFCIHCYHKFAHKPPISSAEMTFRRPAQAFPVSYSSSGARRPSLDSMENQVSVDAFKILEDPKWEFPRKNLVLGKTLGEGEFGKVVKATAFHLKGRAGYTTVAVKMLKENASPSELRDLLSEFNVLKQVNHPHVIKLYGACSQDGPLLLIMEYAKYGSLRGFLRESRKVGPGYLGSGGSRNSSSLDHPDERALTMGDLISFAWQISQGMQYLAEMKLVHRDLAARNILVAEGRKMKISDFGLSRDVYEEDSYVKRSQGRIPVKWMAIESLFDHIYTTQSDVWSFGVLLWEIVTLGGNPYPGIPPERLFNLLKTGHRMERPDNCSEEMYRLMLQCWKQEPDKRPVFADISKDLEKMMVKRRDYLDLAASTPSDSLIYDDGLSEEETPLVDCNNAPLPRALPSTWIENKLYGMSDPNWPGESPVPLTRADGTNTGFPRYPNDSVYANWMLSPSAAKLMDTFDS
Experiment [5] relates to Ba/F3 parental cells. Nature of the experiment: Cell proliferation analysis, Ba/F3 parental. Type of experiment: cell-based. The conditions noted are these: Mus musculus, BaF3, 72 h; 3 days, CellTiter-Glo, 8 ng/ml IL-3. The protocol:
(§4) The inhibitory effect of the example compounds on Ba/F3 parental, Ba/F3 Bcr-Abl^T315I, K562, Ba/F3 KIF5B-RET, BaF3 FLT3-ITD cell activity was determined.
(§5) Materials and reagents: RPMI-1640 medium (GIBCO, Catalog No. A10491-01), fetal bovine serum (GIBCO, Catalog No. 10099141), antibiotics (Penicillin-Streptomycin), IL-3(PeproTech), promycin; cell lines: Ba/F3 parental, Ba/F3 Bcr-Abl^T315I, Ba/F3 KIF5B-RET, BaF3 FLT3-ITD, (purchased from American type culture collection, ATCC), K562 live cell detection kit CellTiter-Glo4(Promega, Catalog No. G7572), 96-well black wall transparent flat bottom cell culture plate (Corning, Catalog No. 3340).
(§6) Test method: 1. Preparation of cell plate: Ba/F3 parental, Ba/F3 Bcr-Abl^T315I K563, Ba/F3 KIFSB-RET, BaF3 FLT3-ITD cells were respectively seeded in 96-well plates, and 8 ng/ml IL-3 was added to the Ba/F3 cells, and the cell plates were placed in a carbon dioxide incubator and cultured overnight. 2. The test compounds were dissolved in DMSO, 9 compound concentrations were made with a 3.16-fold gradient dilution in triplicate. 3. Treatment of the cells with compounds: The compounds were transferred to the cell plate with a starting concentration of 10 μM. The cell plate was placed in a carbon dioxide incubator for 3 days. 4. Detection: CellTiter-Glo agent was added to the cell plate, and incubated at room temperature for 30 minutes to stabilize the luminous signal. PerkinElmer Envision multi-label analyzer was used for reading, wherein A represents IC50≤50 nM, B represents IC50 is 50-100 nM, C represents IC50 is 100-500 nM, D represents IC50 is 500-1000 nM, […].
(In general: Cellular ATP, detected with luciferase, serves as a proxy for viable cell number.)

The subject of experiment [6] is K562 cells. Description: Cell proliferation analysis, K562. It is filed as cell-based. The conditions noted are these: Homo sapiens, K562, 72 h; 3 days, CellTiter-Glo. The protocol:
as §4, §5, §6

Experiment [7] concerns Ba/F3 BCR-ABL cells. Nature of the experiment: Cell proliferation analysis, Ba/F3 BCR-ABL. The note with it: Mus musculus, BaF3, 72 h; 3 days, CellTiter-Glo. It is filed as cell-based. The protocol:
[Worded in the source for another variant; this variant is reported under the same test.] as §4, §5, §6

For experiment [8], the system named is Ba/F3 Bcr-Abl^T315I cells. Description: Cell proliferation analysis, Ba/F3 Bcr-Abl T315I. It is filed as cell-based. The conditions noted are these: Mus musculus, BaF3, 72 h; 3 days, CellTiter-Glo; read-out: IC50 (nM) Ba/F3 BCR-ABL^T315. How it is done:
as §4, §5, §6

The test system of experiment [9] is Ba/F3 KIF5B-RET cells. Description: Cell proliferation analysis, Ba/F3 KIF5B-RET. Type of experiment: cell-based. The conditions noted are these: Mus musculus, BaF3, 72 h; 3 days, CellTiter-Glo. How it is done: as §4, §5, §6
In experiment [10] the test system is BaF3 FLT3-ITD cells. Description: Cell proliferation analysis, BaF3 FLT3-ITD. It is filed as cell-based. The note with it: Ba/F3 FLT3-ITD, 72 h; 3 days, CellTiter-Glo. How it is done: as §4, §5, §6

Chain of Ret (P07949 29-1114): as the sequence (P07949 29-1114 V804M) above, with M776V counted along it

In the case of `Cc1ccc(NC(=O)c2ccnc(C(F)(F)F)c2)cc1C#Cc1cnc2c(Nc3cnn(C)c3)nccn12` [Example 3, N-(4-methyl-3-((8-((1-methyl-1H-pyrazol-4-yl)amino)imidazo[1,2-a]pyrazin-3-yl)ethynyl)phenyl)-2-(trifluoromethyl)isonicotinamide], the IC50 turned out to be 1.89 nM in experiment [1]; 27.5 nM in experiment [2]; 0.25 nM in experiment [3]; 23.1 nM in experiment [4]; 1340 nM in [5]; 0.16 nM in [6]. Moreover, the IC50 in experiment [7] came out at 4.75 nM; in experiment [8] it was 101 nM; in experiment [9], 26.4 nM; in [10], 67.7 nM.

For the compound `Cc1ccc(C(=O)Nc2cccc(C(F)(F)F)c2)cc1C#Cc1cnc2c(Nc3cnn(C)c3)ccnn12` [Example 14, 4-methyl-3-((8-((1-methyl-1H-pyrazol-4-yl)amino)imidazo[1,2-b]pyridazin-3-yl)ethynyl)-N-(3-(trifluoromethyl)phenyl)benzamide], the IC50 in experiment [1] is 4.91 nM; in experiment [2], 12.6 nM; in experiment [3], 0.49 nM; in [4] it was 9.92 nM; in experiment [5], 1550 nM; in [6] it was 0.97 nM. Also, the IC50 in [7] worked out at 9.02 nM; in experiment [8], 24.9 nM; in [9], 15.8 nM; in [10] it was 23 nM.

Regarding `Cc1ccc(C(=O)Nc2ccc(CN3CCN(C)CC3)c(C(F)(F)F)c2)cc1C#Cc1cnc2c(Nc3cnn(C)c3)ccnn12` [Example 15, 4-methyl-3-((8-((1-methyl-1H-pyrazol-4-yl)amino)imidazo[1,2-b]pyridazin-3-yl)ethynyl)-N-(4-((4-methylpiperazin-1-yl)methyl)-3-(trifluoromethyl)phenyl)benzamide], the IC50 in experiment [1] was found to be 3.24 nM; in experiment [2], 4.28 nM; in experiment [3], 0.37 nM; in [4] it was 1.42 nM; in experiment [5], 280 nM; in experiment [6] it was 0.76 nM. In addition, the IC50 turned out to be 12.8 nM in experiment [7], 25.2 nM in experiment [8], 4.56 nM in experiment [9] and 1.14 nM in [10].
